Test results published in article doi:10.1101/2024.08.19.608619, “Discovery of potent SARS-CoV-2 nsp3 macrodomain inhibitors uncovers lack of translation to cellular antiviral response” (bioRxiv, 2024).
Values after ≈ are worked out from the molar mass of the structure shown.

System: not listed separately
Assay: Permeability Papp (AB) MDR1/MDCKII
Details: In vitro MDR1-MDCKII permeability, A to B, no inhibitor

Q: With `CCNC(=O)c1cc2c(N[C@H](c3ccc4c(c3)S(=O)(=O)CCC4)C(C)C)ncnc2[nH]1` [ASAP-0012325] as the compound, how does the papp_a_to_b_mean read?
A: 0.717 ×10⁻⁶ cm/s

Q: Which papp_a_to_b_mean does the source give for `CC(C)[C@H](Nc1ncnc2[nH]c(C(=O)N[C@H]3CCN(C)C3)cc12)c1ccc2c(c1)S(=O)(=O)CCC2` [ASAP-0012334] here?
A: 0.175 ×10⁻⁶ cm/s

Q: For `CC(C)[C@H](Nc1ncnc2[nH]c(-c3cnn(CC(=O)N(C)C)c3)cc12)c1ccc2c(c1)S(=O)(=O)CCC2` [ASAP-0013744], which papp_a_to_b_mean is on record?
A: 1.17 ×10⁻⁶ cm/s

Q: Which papp_a_to_b_mean does the source give for `CC(C)[C@@H](Nc1ncnc2[nH]c(-c3cnn(CC(=O)N(C)C)c3)cc12)c1ccc2c(c1)S(=O)(=O)CCC2` [ASAP-0013747] here?
A: 0.555 ×10⁻⁶ cm/s

Q: For `CCNC(=O)c1cc2c(N[C@H](c3ccc4c(c3)OCCO4)C(C)C)ncnc2[nH]1` [ASAP-0013824], which papp_a_to_b_mean is on record?
A: 2.7 ×10⁻⁶ cm/s

Same assay, conditions: In vitro MDR1-MDCKII permeability, recovery A to B, no inhibitor

Q: Which perc_recovery_a_to_b_mean does the source give for `CCNC(=O)c1cc2c(N[C@H](c3ccc4c(c3)S(=O)(=O)CCC4)C(C)C)ncnc2[nH]1` [ASAP-0012325] here?
A: 88.3%

Q: With `CC(C)[C@H](Nc1ncnc2[nH]c(C(=O)N[C@H]3CCN(C)C3)cc12)c1ccc2c(c1)S(=O)(=O)CCC2` [ASAP-0012334] as the compound, how does the perc_recovery_a_to_b_mean read?
A: 89.9%

Q: With `CC(C)[C@H](Nc1ncnc2[nH]c(-c3cnn(CC(=O)N(C)C)c3)cc12)c1ccc2c(c1)S(=O)(=O)CCC2` [ASAP-0013744] as the compound, how does the perc_recovery_a_to_b_mean read?
A: 116.0%

Q: Which perc_recovery_a_to_b_mean does the source give for `CC(C)[C@@H](Nc1ncnc2[nH]c(-c3cnn(CC(=O)N(C)C)c3)cc12)c1ccc2c(c1)S(=O)(=O)CCC2` [ASAP-0013747] here?
A: 78.8%

Q: For `CCNC(=O)c1cc2c(N[C@H](c3ccc4c(c3)OCCO4)C(C)C)ncnc2[nH]1` [ASAP-0013824], which perc_recovery_a_to_b_mean is on record?
A: 94.3%

System: not listed separately
Assay: LogD
Details: pH 7.4; In vitro LogD

Q: Which logd does the source give for `CCNC(=O)c1cc2c(N[C@H](c3ccc4c(c3)S(=O)(=O)CCC4)C(C)C)ncnc2[nH]1` [ASAP-0012325] here?
A: 2.7

Q: Which logd does the source give for `CC(C)[C@H](Nc1ncnc2[nH]c(C(=O)N[C@H]3CCN(C)C3)cc12)c1ccc2c(c1)S(=O)(=O)CCC2` [ASAP-0012334] here?
A: 1.4

Q: With `CC(C)[C@H](Nc1ncnc2[nH]c(-c3cnn(CC(=O)N(C)C)c3)cc12)c1ccc2c(c1)S(=O)(=O)CCC2` [ASAP-0013744] as the compound, how does the logd read?
A: 2.2

Q: With `CC(C)[C@@H](Nc1ncnc2[nH]c(-c3cnn(CC(=O)N(C)C)c3)cc12)c1ccc2c(c1)S(=O)(=O)CCC2` [ASAP-0013747] as the compound, how does the logd read?
A: 2.2

Q: With `CCNC(=O)c1cc2c(N[C@H](c3ccc4c(c3)OCCO4)C(C)C)ncnc2[nH]1` [ASAP-0013824] as the compound, how does the logd read?
A: 3.6

System: not listed separately
Assay: Hepatic microsomal stability, MLM
Format: in vitro ADME
Details: In vitro mouse liver microsomal stability

Q: Which results are given for `CCNC(=O)c1cc2c(N[C@H](c3ccc4c(c3)S(=O)(=O)CCC4)C(C)C)ncnc2[nH]1` [ASAP-0012325]?
A: clint: 64.0 µL/min/mg; perc_remaining: 34.0%; t_half: 26.3 min

Q: What does the source list for `CC(C)[C@H](Nc1ncnc2[nH]c(C(=O)N[C@H]3CCN(C)C3)cc12)c1ccc2c(c1)S(=O)(=O)CCC2` [ASAP-0012334]?
A: clint: 1.0 µL/min/mg; perc_remaining: 98.0%; t_half: 1540.5 min

Q: Which clint does the source give for `CC(C)[C@H](Nc1ncnc2[nH]c(-c3cnn(CC(=O)N(C)C)c3)cc12)c1ccc2c(c1)S(=O)(=O)CCC2` [ASAP-0013744] here?
A: 124.0 µL/min/mg

Q: And the perc_remaining?
A: 13.0%

Q: What about the t_half of the same compound?
A: 13.5 min

Q: Which results are given for `CC(C)[C@@H](Nc1ncnc2[nH]c(-c3cnn(CC(=O)N(C)C)c3)cc12)c1ccc2c(c1)S(=O)(=O)CCC2` [ASAP-0013747]?
A: clint: 31.0 µL/min/mg; perc_remaining: 59.0%; t_half: 53.8 min

Q: For `CCNC(=O)c1cc2c(N[C@H](c3ccc4c(c3)OCCO4)C(C)C)ncnc2[nH]1` [ASAP-0013824], which clint is on record?
A: 48.0 µL/min/mg

Q: What about the perc_remaining of the same compound?
A: 47.0%

Q: And the t_half?
A: 34.6 min

Same assay, conditions: In vitro mouse liver microsomal stability, no cofactor

Q: For `CCNC(=O)c1cc2c(N[C@H](c3ccc4c(c3)S(=O)(=O)CCC4)C(C)C)ncnc2[nH]1` [ASAP-0012325], which perc_remaining_no_cofactor is on record?
A: 97.0%

Q: Which perc_remaining_no_cofactor does the source give for `CC(C)[C@H](Nc1ncnc2[nH]c(C(=O)N[C@H]3CCN(C)C3)cc12)c1ccc2c(c1)S(=O)(=O)CCC2` [ASAP-0012334] here?
A: 97.0%

Q: Which perc_remaining_no_cofactor does the source give for `CC(C)[C@H](Nc1ncnc2[nH]c(-c3cnn(CC(=O)N(C)C)c3)cc12)c1ccc2c(c1)S(=O)(=O)CCC2` [ASAP-0013744] here?
A: 98.0%

Q: For `CC(C)[C@@H](Nc1ncnc2[nH]c(-c3cnn(CC(=O)N(C)C)c3)cc12)c1ccc2c(c1)S(=O)(=O)CCC2` [ASAP-0013747], which perc_remaining_no_cofactor is on record?
A: 102.0%

Q: Which perc_remaining_no_cofactor does the source give for `CCNC(=O)c1cc2c(N[C@H](c3ccc4c(c3)OCCO4)C(C)C)ncnc2[nH]1` [ASAP-0013824] here?
A: 94.0%

System: SARS-CoV-2, isolate USA-WA1/2020
Assay: microbe, parasite or virus in culture
Format: cell-based
Details: HeLa-ACE2 SARS-CoV-2 antiviral effect without P-gp inhibitor; maximum measured response of dose series

Q: Which perc_max_measured does the source give for `CCNC(=O)c1cc2c(N[C@H](c3ccc4c(c3)OCCO4)C(C)C)ncnc2[nH]1` [ASAP-0013824] here?
A: 109.949%

Q: With `C[C@@H](C(=O)O)[C@H](NC(=O)c1ncnc2[nH]ccc12)c1ccc(Br)cc1` [ASAP-0014726] as the compound, how does the perc_max_measured read?
A: 129.968%

Same assay, conditions: HeLa-ACE2 SARS-CoV-2 antiviral effect without P-gp inhibitor; minimum measured response of dose series

Q: For `CCNC(=O)c1cc2c(N[C@H](c3ccc4c(c3)OCCO4)C(C)C)ncnc2[nH]1` [ASAP-0013824], which perc_min_measured is on record?
A: 49.504%

Q: Which perc_min_measured does the source give for `C[C@@H](C(=O)O)[C@H](NC(=O)c1ncnc2[nH]ccc12)c1ccc(Br)cc1` [ASAP-0014726] here?
A: 44.709%

Same assay, conditions: HeLa-ACE2 SARS-CoV-2 antiviral effect without P-gp inhibitor; read-out: ec50

Q: With `CCNC(=O)c1cc2c(N[C@H](c3ccc4c(c3)OCCO4)C(C)C)ncnc2[nH]1` [ASAP-0013824] as the compound, how does the EC50 read?
A: 19.7 µM

Same assay, conditions: HeLa-ACE2 SARS-CoV-2 antiviral effect without P-gp inhibitor; read-out: ec90

Q: With `CCNC(=O)c1cc2c(N[C@H](c3ccc4c(c3)OCCO4)C(C)C)ncnc2[nH]1` [ASAP-0013824] as the compound, how does the EC90 read?
A: > 20 µM

System: HeLa-ACE2 cells
Assay: not given
Details: HeLa-ACE2 cytotoxicity

Q: Which CC50 does the source give for `CCNC(=O)c1cc2c(N[C@H](c3ccc4c(c3)OCCO4)C(C)C)ncnc2[nH]1` [ASAP-0013824] here?
A: > 20 µM

Q: And the cc10?
A: > 20.0 µM

Q: Which results are given for `C[C@@H](C(=O)O)[C@H](NC(=O)c1ncnc2[nH]ccc12)c1ccc(Br)cc1` [ASAP-0014726]?
A: CC50: > 20 µM; cc10: > 20.0 µM

Same assay, conditions: HeLa-ACE2 cytotoxicity; highest measured response of the dose series

Q: Which perc_max_measured does the source give for `CCNC(=O)c1cc2c(N[C@H](c3ccc4c(c3)OCCO4)C(C)C)ncnc2[nH]1` [ASAP-0013824] here?
A: 99.37%

Q: With `C[C@@H](C(=O)O)[C@H](NC(=O)c1ncnc2[nH]ccc12)c1ccc(Br)cc1` [ASAP-0014726] as the compound, how does the perc_max_measured read?
A: 106.212%

Same assay, conditions: HeLa-ACE2 cytotoxicity; lowest measured response of the dose series

Q: With `CCNC(=O)c1cc2c(N[C@H](c3ccc4c(c3)OCCO4)C(C)C)ncnc2[nH]1` [ASAP-0013824] as the compound, how does the perc_min_measured read?
A: 90.423%

Q: Which perc_min_measured does the source give for `C[C@@H](C(=O)O)[C@H](NC(=O)c1ncnc2[nH]ccc12)c1ccc(Br)cc1` [ASAP-0014726] here?
A: 72.067%

System: not listed separately
Assay: Hepatic microsomal stability, HLM
Format: in vitro ADME, human
Details: In vitro human liver microsomal stability

Q: Which clint does the source give for `CCNC(=O)c1cc2c(N[C@H](c3ccc4c(c3)S(=O)(=O)CCC4)C(C)C)ncnc2[nH]1` [ASAP-0012325] here?
A: 109.0 µL/min/mg

Q: What about the perc_remaining of the same compound?
A: 17.0%

Q: And the t_half?
A: 15.4 min

Q: Which clint does the source give for `CC(C)[C@H](Nc1ncnc2[nH]c(C(=O)N[C@H]3CCN(C)C3)cc12)c1ccc2c(c1)S(=O)(=O)CCC2` [ASAP-0012334] here?
A: 11.0 µL/min/mg

Q: What about the perc_remaining of the same compound?
A: 80.0%

Q: And the t_half?
A: 149.8 min

Q: With `CC(C)[C@H](Nc1ncnc2[nH]c(-c3cnn(CC(=O)N(C)C)c3)cc12)c1ccc2c(c1)S(=O)(=O)CCC2` [ASAP-0013744] as the compound, how does the clint read?
A: 92.0 µL/min/mg

Q: What about the perc_remaining of the same compound?
A: 22.0%

Q: And the t_half?
A: 18.1 min

Q: What does the source list for `CC(C)[C@@H](Nc1ncnc2[nH]c(-c3cnn(CC(=O)N(C)C)c3)cc12)c1ccc2c(c1)S(=O)(=O)CCC2` [ASAP-0013747]?
A: clint: 297.0 µL/min/mg; perc_remaining: 1.0%; t_half: 5.6 min

Q: What does the source list for `CCNC(=O)c1cc2c(N[C@H](c3ccc4c(c3)OCCO4)C(C)C)ncnc2[nH]1` [ASAP-0013824]?
A: clint: 67.0 µL/min/mg; perc_remaining: 32.0%; t_half: 24.8 min

Same assay, conditions: In vitro human liver microsomal stability; no cofactor

Q: With `CCNC(=O)c1cc2c(N[C@H](c3ccc4c(c3)S(=O)(=O)CCC4)C(C)C)ncnc2[nH]1` [ASAP-0012325] as the compound, how does the perc_remaining_no_cofactor read?
A: 102.0%

Q: Which perc_remaining_no_cofactor does the source give for `CC(C)[C@H](Nc1ncnc2[nH]c(C(=O)N[C@H]3CCN(C)C3)cc12)c1ccc2c(c1)S(=O)(=O)CCC2` [ASAP-0012334] here?
A: 98.0%

Q: For `CC(C)[C@H](Nc1ncnc2[nH]c(-c3cnn(CC(=O)N(C)C)c3)cc12)c1ccc2c(c1)S(=O)(=O)CCC2` [ASAP-0013744], which perc_remaining_no_cofactor is on record?
A: 97.0%

Q: For `CC(C)[C@@H](Nc1ncnc2[nH]c(-c3cnn(CC(=O)N(C)C)c3)cc12)c1ccc2c(c1)S(=O)(=O)CCC2` [ASAP-0013747], which perc_remaining_no_cofactor is on record?
A: 99.0%

Q: With `CCNC(=O)c1cc2c(N[C@H](c3ccc4c(c3)OCCO4)C(C)C)ncnc2[nH]1` [ASAP-0013824] as the compound, how does the perc_remaining_no_cofactor read?
A: 100.0%

System: not listed separately
Assay: in vitro
Details: human, hela-ace2 cells, 50.0

Q: Which CC50 at 24 h does the source give for `C[C@@H](C(=O)O)[C@H](NC(=O)c1ncnc2[nH]ccc12)c1ccc(Br)cc1` [ASAP-0014726] here?
A: > 20 µM

System: not listed separately
Assay: In vitro kinetic solubility
Details: In vitro kinetic solubility, ph 7.4

Q: With `CCNC(=O)c1cc2c(N[C@H](c3ccc4c(c3)S(=O)(=O)CCC4)C(C)C)ncnc2[nH]1` [ASAP-0012325] as the compound, how does the solubility_mean read?
A: 337 µM (≈ 149 µg/mL)

Q: For `CC(C)[C@H](Nc1ncnc2[nH]c(C(=O)N[C@H]3CCN(C)C3)cc12)c1ccc2c(c1)S(=O)(=O)CCC2` [ASAP-0012334], which solubility_mean is on record?
A: 396 µM (≈ 197 µg/mL)

Q: With `CC(C)[C@H](Nc1ncnc2[nH]c(-c3cnn(CC(=O)N(C)C)c3)cc12)c1ccc2c(c1)S(=O)(=O)CCC2` [ASAP-0013744] as the compound, how does the solubility_mean read?
A: 361 µM (≈ 188 µg/mL)

Q: Which solubility_mean does the source give for `CC(C)[C@@H](Nc1ncnc2[nH]c(-c3cnn(CC(=O)N(C)C)c3)cc12)c1ccc2c(c1)S(=O)(=O)CCC2` [ASAP-0013747] here?
A: 256 µM (≈ 134 µg/mL)

Q: For `CCNC(=O)c1cc2c(N[C@H](c3ccc4c(c3)OCCO4)C(C)C)ncnc2[nH]1` [ASAP-0013824], which solubility_mean is on record?
A: 263 µM (≈ 104 µg/mL)
